How the values were obtained:
[1] = Physical and chemical stability on storage (PXRD, Karl Fischer water content, HPLC purity); details: for change in PXRD pattern on storage / degradation on storage / increase in moisture content on storage / physical and chemical stability (conclusion): 6 months at 40° C./75% RH and at 25° C./60% RH
Procedure: The physical and chemical stability of dolutegravir sodium Form-M2 and Form-M4 was determined by storing the samples at 40° C./75% relative humidity (RH) and at 25° C./60% RH for 6 months. At different time points during storage, the crystal structure of the material was analyzed by PXRD, the water content by Karl Fischer, and by HPLC for final purity.

[2] = Thermodynamic stability of the crystalline form; type: physicochemical
[3] = storage at 25° C./60% RH, 1 month
[4] = storage at 25° C./60% RH, 3 months
[5] = storage at 25° C./60% RH, 6 months
[6] = storage at 25° C./60% RH, Initial
[7] = storage at 40° C./75% RH, 1 month
[8] = storage at 40° C./75% RH, 3 months
[9] = storage at 40° C./75% RH, 6 months
[10] = storage at 40° C./75% RH, Initial

Compound | change in PXRD pattern on storage [1] | degradation on storage [1] | increase in moisture content on storage [1] | physical and chemical stability (conclusion) [1] | HPLC purity (%) [1, 3] [%] | PXRD (polymorph found) [1, 3] | HPLC purity (%) [1, 4] [%] | PXRD (polymorph found) [1, 4] | HPLC purity (%) [1, 5] [%] | PXRD (polymorph found) [1, 5] | HPLC purity (%) [1, 6] [%] | PXRD (polymorph found) [1, 6] | HPLC purity (%) [1, 7] [%] | PXRD (polymorph found) [1, 7] | HPLC purity (%) [1, 8] [%] | PXRD (polymorph found) [1, 8] | HPLC purity (%) [1, 9] [%] | PXRD (polymorph found) [1, 9] | HPLC purity (%) [1, 10] [%] | PXRD (polymorph found) [1, 10] | other results
C[C@@H]1CCO[C@H]2Cn3cc(C(=O)NCc4ccc(F)cc4F)c(=O)c([O-])c3C(=O)N12.[Na+] [Form-M2, sodium (4R, 12aS)-9-((2,4-difluorobenzyl)carbamoyl)-4-methyl-6,8-dioxo-3,4,6,8, 12, 12a-hexahydro-2H-pyrido[1′,2′:4,5]pyrazino[2,1-b][1,3]oxazin-7-olate] | no change in PXRD pattern | no significant degradation | no substantial increase in moisture content | physically and chemically stable | 99.6 | Form-M2 | 99.5 | Form-M2 | 99.5 | Form-M2 | 99.7 | Form-M2 | 99.6 | Form-M2 | 99.5 | Form-M2 | 99.5 | Form-M2 | 99.7 | Form-M2 | –
C[C@@H]1CCO[C@H]2Cn3cc(C(=O)NCc4ccc(F)cc4F)c(=O)c([O-])c3C(=O)N12.[Na+] [Form-M3, sodium (4R, 12aS)-9-((2,4-difluorobenzyl)carbamoyl)-4-methyl-6,8-dioxo-3,4,6,8, 12, 12a-hexahydro-2H-pyrido[1′,2′:4,5]pyrazino[2,1-b][1,3]oxazin-7-olate] | – | – | – | – | – | – | – | – | – | – | – | – | – | – | – | – | – | – | – | – | thermodynamic stability [2]: only metastable and not thermodynamically stable
C[C@@H]1CCO[C@H]2Cn3cc(C(=O)NCc4ccc(F)cc4F)c(=O)c([O-])c3C(=O)N12.[Na+] [Form-M4, sodium (4R, 12aS)-9-((2,4-difluorobenzyl)carbamoyl)-4-methyl-6,8-dioxo-3,4,6,8, 12, 12a-hexahydro-2H-pyrido[1′,2′:4,5]pyrazino[2,1-b][1,3]oxazin-7-olate] | no change in PXRD pattern | no significant degradation | no substantial increase in moisture content | physically and chemically stable | 99.17 | Form-M4 | 99.10 | Form-M4 | 99.0 | Form-M4 | 99.24 | Form-M4 | 99.2 | Form-M4 | 99.1 | Form-M4 | 99.0 | Form-M4 | 99.2 | Form-M4 | –

— US10087193B2, “Crystalline forms of dolutegravir sodium” (Mylan Laboratories Ltd., priority 2014, dated 2018)
